{
  "source": "patent US20220009920A1",
  "about": "(GB005, Inc., priority 2020, published 2022)",
  "assay_in_all_cases": "Large panel kinase profiling",
  "format_in_all_cases": "biochemical",
  "details_in_all_cases": "1 μM test article, 1 mM ATP",
  "key": {"[1]": {"molecular_target": "PIM1 (Homo sapiens, UniProt P11309)", "sequence (P11309 whole entry, species assumed)": "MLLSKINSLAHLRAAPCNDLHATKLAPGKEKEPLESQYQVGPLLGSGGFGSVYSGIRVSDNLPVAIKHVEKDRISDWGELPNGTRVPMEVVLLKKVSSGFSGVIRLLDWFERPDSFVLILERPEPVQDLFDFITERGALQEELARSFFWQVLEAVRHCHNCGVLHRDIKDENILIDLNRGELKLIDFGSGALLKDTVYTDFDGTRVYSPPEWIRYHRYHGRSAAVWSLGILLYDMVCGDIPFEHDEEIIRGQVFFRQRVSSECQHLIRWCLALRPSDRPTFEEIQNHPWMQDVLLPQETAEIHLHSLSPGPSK", "procedure,_shortened": "(§1)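 Reactions contain 1 mM ATP and 1 μM test article; the CSox peptide sensor reports phosphorylation as fluorescence gain. Temperature is held at 30° C. while signal (360 nm excitation, 485 nm emission) is recorded every 1 min.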"}, "[2]": {"molecular_target": "T1, MAP4K4/HGK (Homo sapiens, UniProt O95819)", "T1 construct": "AssayQuant Technologies, Inc. (service provider)", "T1 sequence (O95819 whole entry)": "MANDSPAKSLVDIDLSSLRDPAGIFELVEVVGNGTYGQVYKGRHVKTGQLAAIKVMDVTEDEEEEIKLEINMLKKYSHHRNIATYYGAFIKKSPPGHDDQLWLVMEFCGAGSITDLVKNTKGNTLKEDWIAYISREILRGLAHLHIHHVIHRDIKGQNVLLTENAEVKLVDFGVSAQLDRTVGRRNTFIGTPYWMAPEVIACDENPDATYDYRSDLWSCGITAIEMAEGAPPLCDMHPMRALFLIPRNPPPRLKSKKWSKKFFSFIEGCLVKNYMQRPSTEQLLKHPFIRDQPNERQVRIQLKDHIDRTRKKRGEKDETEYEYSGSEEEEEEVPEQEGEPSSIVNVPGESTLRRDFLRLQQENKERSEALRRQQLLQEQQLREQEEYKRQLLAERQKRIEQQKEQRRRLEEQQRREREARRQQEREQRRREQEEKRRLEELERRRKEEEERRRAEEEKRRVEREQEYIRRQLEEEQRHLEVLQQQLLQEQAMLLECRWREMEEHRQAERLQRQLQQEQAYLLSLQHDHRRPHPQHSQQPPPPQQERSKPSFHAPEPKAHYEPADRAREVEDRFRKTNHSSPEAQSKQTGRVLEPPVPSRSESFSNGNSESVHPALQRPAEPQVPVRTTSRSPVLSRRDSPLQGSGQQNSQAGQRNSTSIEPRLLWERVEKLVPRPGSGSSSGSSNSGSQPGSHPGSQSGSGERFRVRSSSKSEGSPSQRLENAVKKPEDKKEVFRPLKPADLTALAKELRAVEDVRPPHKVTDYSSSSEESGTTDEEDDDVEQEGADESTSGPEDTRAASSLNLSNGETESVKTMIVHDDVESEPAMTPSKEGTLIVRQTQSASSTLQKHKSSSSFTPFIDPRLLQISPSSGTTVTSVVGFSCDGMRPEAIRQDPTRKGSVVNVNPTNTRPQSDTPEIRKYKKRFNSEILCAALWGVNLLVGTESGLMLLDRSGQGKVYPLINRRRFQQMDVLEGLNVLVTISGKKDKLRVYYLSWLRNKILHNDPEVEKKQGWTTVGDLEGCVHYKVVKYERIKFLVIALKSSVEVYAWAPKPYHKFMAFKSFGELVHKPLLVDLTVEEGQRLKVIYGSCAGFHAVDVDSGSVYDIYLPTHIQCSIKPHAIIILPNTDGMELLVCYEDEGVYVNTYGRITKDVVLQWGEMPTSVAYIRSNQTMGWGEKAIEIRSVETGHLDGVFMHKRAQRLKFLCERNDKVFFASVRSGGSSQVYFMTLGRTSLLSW", "procedure,_shortened": "as §1"}, "[3]": {"molecular_target": "T2, GRK5 (Homo sapiens, UniProt P34947)", "T2 construct": "AssayQuant Technologies, Inc. (service provider)", "T2 sequence (P34947 whole entry, species assumed)": "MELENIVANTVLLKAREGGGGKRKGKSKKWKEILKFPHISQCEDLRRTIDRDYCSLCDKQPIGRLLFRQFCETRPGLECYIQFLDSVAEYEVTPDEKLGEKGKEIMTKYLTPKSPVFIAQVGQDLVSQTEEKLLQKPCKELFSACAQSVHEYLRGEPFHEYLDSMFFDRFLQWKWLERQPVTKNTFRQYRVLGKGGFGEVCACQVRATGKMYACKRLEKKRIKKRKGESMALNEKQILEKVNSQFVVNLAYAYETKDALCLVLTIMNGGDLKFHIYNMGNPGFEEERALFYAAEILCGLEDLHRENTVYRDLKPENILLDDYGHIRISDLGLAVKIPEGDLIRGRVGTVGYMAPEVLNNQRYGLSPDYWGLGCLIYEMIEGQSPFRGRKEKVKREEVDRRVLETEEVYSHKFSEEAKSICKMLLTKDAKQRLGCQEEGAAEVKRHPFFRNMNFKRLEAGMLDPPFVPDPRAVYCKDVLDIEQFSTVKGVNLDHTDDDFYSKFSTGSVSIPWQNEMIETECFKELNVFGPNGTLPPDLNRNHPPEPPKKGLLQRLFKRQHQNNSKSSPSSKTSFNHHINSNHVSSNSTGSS", "procedure,_shortened": "as §1"}, "[4]": {"molecular_target": "T3, DDR2 (Homo sapiens, UniProt Q16832)", "T3 construct": "AssayQuant Technologies, Inc. (service laboratory)", "T3 sequence (Q16832 22-855)": "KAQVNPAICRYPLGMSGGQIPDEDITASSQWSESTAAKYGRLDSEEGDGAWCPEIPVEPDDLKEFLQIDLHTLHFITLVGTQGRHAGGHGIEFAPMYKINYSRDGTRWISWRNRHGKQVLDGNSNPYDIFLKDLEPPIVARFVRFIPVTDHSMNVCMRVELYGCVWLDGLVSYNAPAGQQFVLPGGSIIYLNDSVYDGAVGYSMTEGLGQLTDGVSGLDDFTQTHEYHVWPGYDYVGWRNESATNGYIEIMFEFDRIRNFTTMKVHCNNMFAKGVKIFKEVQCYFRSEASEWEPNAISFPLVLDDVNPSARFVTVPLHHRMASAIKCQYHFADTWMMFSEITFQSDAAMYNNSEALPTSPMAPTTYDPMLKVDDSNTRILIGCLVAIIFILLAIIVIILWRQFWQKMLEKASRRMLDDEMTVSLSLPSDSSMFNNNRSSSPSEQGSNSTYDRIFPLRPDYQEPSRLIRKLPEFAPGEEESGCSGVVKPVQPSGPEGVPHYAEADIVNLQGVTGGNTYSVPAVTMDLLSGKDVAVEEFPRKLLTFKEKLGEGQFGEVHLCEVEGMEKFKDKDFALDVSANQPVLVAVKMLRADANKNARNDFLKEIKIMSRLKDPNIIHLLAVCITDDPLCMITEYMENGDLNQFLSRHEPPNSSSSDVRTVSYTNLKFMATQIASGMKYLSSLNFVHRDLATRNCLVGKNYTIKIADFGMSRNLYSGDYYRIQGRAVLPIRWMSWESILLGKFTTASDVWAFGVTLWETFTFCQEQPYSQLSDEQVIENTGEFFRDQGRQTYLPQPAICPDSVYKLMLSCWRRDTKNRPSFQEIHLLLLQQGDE", "procedure,_shortened": "as §1"}, "[5]": {"molecular_target": "T4, TSSK1 (Homo sapiens, UniProt Q9BXA7)", "T4 construct": "AssayQuant Technologies, Inc. (contract laboratory that ran the panel)", "T4 sequence (Q9BXA7 1-367)": "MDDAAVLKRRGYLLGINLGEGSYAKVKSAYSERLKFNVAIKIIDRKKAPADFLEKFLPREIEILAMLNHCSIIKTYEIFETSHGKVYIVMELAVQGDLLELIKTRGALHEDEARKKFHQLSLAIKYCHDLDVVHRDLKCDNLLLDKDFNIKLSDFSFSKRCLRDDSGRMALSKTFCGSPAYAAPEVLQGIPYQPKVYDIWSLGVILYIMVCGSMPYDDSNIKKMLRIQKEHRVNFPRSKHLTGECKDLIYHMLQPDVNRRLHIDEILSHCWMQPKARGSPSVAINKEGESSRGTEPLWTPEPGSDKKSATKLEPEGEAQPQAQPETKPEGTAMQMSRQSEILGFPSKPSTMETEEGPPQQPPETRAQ", "procedure,_shortened": "as §1"}, "[6]": {"molecular_target": "T5, NUAK1 (Homo sapiens, UniProt O60285)", "T5 sequence (O60285 1-661)": "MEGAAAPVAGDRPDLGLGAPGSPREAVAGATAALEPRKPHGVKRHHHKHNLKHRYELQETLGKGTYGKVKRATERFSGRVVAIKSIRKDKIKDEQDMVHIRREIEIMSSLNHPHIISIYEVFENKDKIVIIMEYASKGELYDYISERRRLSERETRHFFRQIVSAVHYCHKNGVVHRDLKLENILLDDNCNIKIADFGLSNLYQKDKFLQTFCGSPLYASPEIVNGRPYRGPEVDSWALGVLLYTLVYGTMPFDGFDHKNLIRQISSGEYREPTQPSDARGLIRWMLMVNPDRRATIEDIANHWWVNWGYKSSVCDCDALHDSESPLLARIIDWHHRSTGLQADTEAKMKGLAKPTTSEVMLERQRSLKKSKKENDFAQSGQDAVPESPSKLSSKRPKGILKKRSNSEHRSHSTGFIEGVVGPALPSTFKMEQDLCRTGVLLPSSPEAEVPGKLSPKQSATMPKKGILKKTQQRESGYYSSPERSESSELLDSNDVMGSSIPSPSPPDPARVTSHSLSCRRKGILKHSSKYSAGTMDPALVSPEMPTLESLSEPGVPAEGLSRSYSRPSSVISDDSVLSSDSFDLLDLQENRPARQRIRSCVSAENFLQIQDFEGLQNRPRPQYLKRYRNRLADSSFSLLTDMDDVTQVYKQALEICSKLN", "procedure,_shortened": "as §1"}, "[7]": {"molecular_target": "T6, CDK2/A2 (Homo sapiens, UniProt P24941)", "T6 construct": "AssayQuant Technologies, Inc. (ran the panel)", "procedure,_shortened": "as §1"}, "[8]": {"molecular_target": "T7, TYK2(JH1JH2) (Homo sapiens, UniProt P29597)", "T7 construct": "TYK2(JH1JH2); AssayQuant Technologies, Inc. (contract laboratory that ran the panel)", "T7 sequence (P29597 575-1187 limits assumed, species assumed)": "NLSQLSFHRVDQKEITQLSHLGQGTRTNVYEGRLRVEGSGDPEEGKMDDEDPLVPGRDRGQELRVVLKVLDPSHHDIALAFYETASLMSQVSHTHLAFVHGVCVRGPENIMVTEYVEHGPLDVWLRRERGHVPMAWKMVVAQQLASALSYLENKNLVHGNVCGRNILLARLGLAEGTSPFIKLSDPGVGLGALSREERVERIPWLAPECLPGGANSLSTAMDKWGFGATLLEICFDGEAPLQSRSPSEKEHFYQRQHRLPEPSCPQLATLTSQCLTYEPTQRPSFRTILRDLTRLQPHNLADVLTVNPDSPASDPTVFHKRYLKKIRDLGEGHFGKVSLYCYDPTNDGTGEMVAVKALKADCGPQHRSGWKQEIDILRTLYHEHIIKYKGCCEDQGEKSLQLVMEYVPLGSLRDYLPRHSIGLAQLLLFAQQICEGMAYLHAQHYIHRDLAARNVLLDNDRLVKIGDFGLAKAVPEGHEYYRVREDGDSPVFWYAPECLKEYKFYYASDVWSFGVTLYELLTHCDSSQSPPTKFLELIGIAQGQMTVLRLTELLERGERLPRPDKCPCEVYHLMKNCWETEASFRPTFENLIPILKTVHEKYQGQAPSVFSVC", "procedure,_shortened": "as §1"}},
  "data": [
    {"smiles": "C=CC(=O)N1CCCC(c2c(F)cc(C(N)=O)c3[nH]c4c(c23)CCCCC4)C1", "note": "(single isomer, unassigned) [Compound 5-6]", "values": [
      {"measurement": "inhibition at 1 µM", "setting": "[1]", "result": 7, "unit": "%"},
      {"measurement": "inhibition at 1 µM", "setting": "[2]", "result": -22.7, "unit": "%"},
      {"measurement": "inhibition at 1 µM", "setting": "[3]", "result": -8.8, "unit": "%"},
      {"measurement": "inhibition at 1 µM", "setting": "[4]", "result": -6.5, "unit": "%"},
      {"measurement": "inhibition at 1 µM", "setting": "[5]", "result": 7.3, "unit": "%"},
      {"measurement": "inhibition at 1 µM", "setting": "[6]", "result": 3.8, "unit": "%"},
      {"measurement": "inhibition at 1 µM", "setting": "[7]", "result": -6.3, "unit": "%"},
      {"measurement": "inhibition at 1 µM", "setting": "[8]", "result": 18.9, "unit": "%"}
    ]},
    {"smiles": "C=CC(=O)N1CCC[C@@H](c2c(F)cc(C(N)=O)c3[nH]c4c(c23)CC2(CC4)CC2)C1", "note": "[Compound 6-2, (S)-5-(1-acryloylpiperidin-3-yl)-6-fluoro-1,2,4,9-tetrahydrospiro[carbazole-3,1′-cyclopropane]-8-carboxamide]", "values": [
      {"measurement": "inhibition at 1 µM", "setting": "[1]", "result": -43, "unit": "%"},
      {"measurement": "inhibition at 1 µM", "setting": "[2]", "result": 2.9, "unit": "%"},
      {"measurement": "inhibition at 1 µM", "setting": "[3]", "result": -114, "unit": "%"},
      {"measurement": "inhibition at 1 µM", "setting": "[4]", "result": -15.9, "unit": "%"},
      {"measurement": "inhibition at 1 µM", "setting": "[5]", "result": -3, "unit": "%"},
      {"measurement": "inhibition at 1 µM", "setting": "[6]", "result": 13.2, "unit": "%"},
      {"measurement": "inhibition at 1 µM", "setting": "[7]", "result": 5.6, "unit": "%"},
      {"measurement": "inhibition at 1 µM", "setting": "[8]", "result": -27.1, "unit": "%"}
    ]},
    {"smiles": "C=CC(=O)N1CCC[C@@H](c2c(F)cc(C(N)=O)c3[nH]c4c(c23)CCC4)C1", "note": "[Compound 10-2, (S)-8-(1-acryloylpiperidin-3-yl)-7-fluoro-1,2,3,4-tetrahydrocyclo-penta[b]indole-5-carboxamide]", "values": [
      {"measurement": "inhibition at 1 µM", "setting": "[1]", "result": -7.1, "unit": "%"},
      {"measurement": "inhibition at 1 µM", "setting": "[2]", "result": -10.5, "unit": "%"},
      {"measurement": "inhibition at 1 µM", "setting": "[3]", "result": -2.2, "unit": "%"},
      {"measurement": "inhibition at 1 µM", "setting": "[4]", "result": -26.7, "unit": "%"},
      {"measurement": "inhibition at 1 µM", "setting": "[5]", "result": 14, "unit": "%"},
      {"measurement": "inhibition at 1 µM", "setting": "[6]", "result": -9.3, "unit": "%"},
      {"measurement": "inhibition at 1 µM", "setting": "[7]", "result": 2.3, "unit": "%"},
      {"measurement": "inhibition at 1 µM", "setting": "[8]", "result": 28.6, "unit": "%"}
    ]}
  ]
}
